Assays:
[1] = biological target: T1, ATeam1.03YEMK (WT) (Bacillus subtilis, UniProt P37812, G131E/INS132K/K132M/M60Y); test: Steady-state FRET ratio ATP dose response of 0.125 uM purified ATeam1.03 or ATeam1.03YEMK sensor at room temperature in 50 mM MOPS-KOH pH 7.3, 50 mM KCl, 0.5 mM free Mg2+, 0.05% Triton-X100 (4 to 9 replicates).; assay type: binding; details: SD, n = 4; read-out: ATP Affinity Kapp (ATeam1.03 and ATeam1.03YEMK)
T1 construct: gene atpC; epsilon subunit with four interface residues exchanged to match Bacillus sp; PS3, flanked by mseCFP and mVenus; polyhistidine-tagged
Experimental: (§1) Protein Characterization. […] Samples were measured with n = 4 to 9 replicates.
(§2) Figure 4 All ATeam1.03 R103 and R115 single and double mutants cause loss of ATP affinity. ATP dose responses were measured using purified protein in solution. […] (A) Example fluorescence emission spectra for (A) wildtype ATeam1.03 and (B) the non-binding R103A/R115A double mutant.
(§3) Figure 5 ATeam1.03YEMK R103 and R115 single and double mutants tune ATP affinity. ATP dose responses were measured using purified protein in solution. […] (A) Example fluorescence emission spectra for (A) wildtype ATeam1.03YEMK, (B) the R103A/R115A double mutant, and (C) the R103A/R115E double mutant. ATP dose response curves for (D) single and (E) double mutants. Apparent dissociation constants are summarized in (F).

[2] = biological target: T2, ATeam1.03YEMK R103E/R115E; test: as above; assay type: binding; details: SD, n = 4; read-out: ATP Affinity Kapp (ATeam1.03 and ATeam1.03YEMK)
T2 construct: YEMK epsilon subunit flanked by mseCFP and mVenus; polyhistidine-tagged
Experimental: as §1, §2, §3

[3] = biological target: T3, ATeam1.03YEMK R103A/R115E; test: as above; assay type: binding; details: SD, n = 4; read-out: ATP Affinity Kapp (ATeam1.03 and ATeam1.03YEMK)
T3 construct: YEMK epsilon subunit flanked by mseCFP and mVenus; polyhistidine-tagged
Experimental: as §1, §2, §3

[4] = biological target: T4, ATeam1.03YEMK R115E (Bacillus subtilis, UniProt P37812, G131E/INS132K/K132M/M60Y/R115E); test: as above; assay type: binding; details: SD, n = 4; read-out: ATP Affinity Kapp (ATeam1.03 and ATeam1.03YEMK)
T4 construct: gene atpC; YEMK epsilon subunit flanked by mseCFP and mVenus; polyhistidine-tagged
Experimental: as §1, §2, §3

[5] = biological target: T5, ATeam1.03YEMK R103E/R115A; test: as above; assay type: binding; details: SD, n = 4; read-out: ATP Affinity Kapp (ATeam1.03 and ATeam1.03YEMK)
T5 construct: YEMK epsilon subunit flanked by mseCFP and mVenus; polyhistidine-tagged
Experimental: as §1, §2, §3

[6] = biological target: T6, ATeam1.03YEMK R115A (Bacillus subtilis, UniProt P37812, G131E/INS132K/K132M/M60Y/R115A); test: as above; assay type: binding; details: SD, n = 4; read-out: ATP Affinity Kapp (ATeam1.03 and ATeam1.03YEMK)
T6 construct: gene atpC; YEMK epsilon subunit flanked by mseCFP and mVenus; polyhistidine-tagged
Experimental: as §1, §2, §3

[7] = biological target: T7, ATeam1.03 (WT) (Bacillus subtilis, UniProt P37812); test: as above; assay type: binding; details: SD, n = 4; read-out: ATP Affinity Kapp (ATeam1.03 and ATeam1.03YEMK)
T7 construct: gene atpC; epsilon subunit flanked by mseCFP and mVenus; polyhistidine-tagged, expressed in E. coli BL21(DE3)
Experimental: as §1, §2, §3

[8] = biological target: T8, ATeam3.10 R103E/R115E (Bacillus sp. PS3, UniProt A0A0M5MQR7, R103E/R115E); test: Steady-state FRET ratio ATP dose response of 0.125 uM purified ATeam3.10 sensor at room temperature in 50 mM MOPS-KOH pH 7.3, 50 mM KCl, 0.5 mM free Mg2+, 0.05% Triton-X100 (4 to 9 replicates).; assay type: binding; set-up: gene uncC; epsilon subunit flanked by mseCFP and mVenus; polyhistidine-tagged; details: SD, n = 4; read-out: ATP Affinity Kapp
Experimental: as §1
(§4) We measured the ATP dose–response curves for all combinations of single and double mutants consisting of R-to-A charge neutralization or R-to-E charge reversal (Table 1, Figure 2). […] The difference between our observations likely reflects the sensitivity of the ε subunit to the label used. Kato-Yamada used a relatively small Cy3 label with a cysteine mutant (Q107C) of the ε subunit, whereas the ε subunit is fused to two large fluorescent proteins in ATeam3.10. Despite this difference, the increase in affinity could still be of particular use for developing an ATeam-based sensor to detect the low levels of extracellular ATP [2, 3, 11, 13, 25].
(§5) Figure 2 ATeam3.10 R103 and R115 single and double mutants tune ATP affinity. ATP dose responses were measured using purified protein in solution. […] Apparent dissociation constants are summarized in (E).

[9] = biological target: T9, ATeam3.10 R115A (Bacillus sp. PS3, UniProt A0A0M5MQR7, R115A); test: as above; assay type: binding; details: SD, n = 4; read-out: ATP Affinity Kapp
T9 construct: gene uncC; epsilon subunit flanked by mseCFP and mVenus; polyhistidine-tagged
Experimental: as §1, §4, §5

[10] = biological target: T10, ATeam3.10 R115E (Bacillus sp. PS3, UniProt A0A0M5MQR7, R115E); test: as above; assay type: binding; details: SD, n = 4; read-out: ATP Affinity Kapp
T10 construct: gene uncC; epsilon subunit flanked by mseCFP and mVenus; polyhistidine-tagged
Experimental: as §1, §4, §5

[11] = biological target: T11, ATeam3.10 R103A/R115E (Bacillus sp. PS3, UniProt A0A0M5MQR7, R103A/R115E); test: as above; assay type: binding; details: SD, n = 4; read-out: ATP Affinity Kapp
T11 construct: gene uncC; epsilon subunit flanked by mseCFP and mVenus; polyhistidine-tagged
Experimental: as §1, §4, §5

[12] = biological target: T12, ATeam3.10 (WT) (Bacillus sp. PS3, UniProt A0A0M5MQR7); test: as above; assay type: binding; details: SD, n = 4; read-out: ATP Affinity Kapp
T12 construct: gene uncC; epsilon subunit flanked by mseCFP and mVenus; polyhistidine-tagged, expressed in E. coli BL21(DE3)
Experimental: as §1, §4, §5

[13] = biological target: T13, ATeam3.10 R103E (Bacillus sp. PS3, UniProt A0A0M5MQR7, R103E); test: as above; assay type: binding; details: SD, n = 4; read-out: ATP Affinity Kapp
T13 construct: gene uncC; epsilon subunit flanked by mseCFP and mVenus; polyhistidine-tagged
Experimental: as §1, §4, §5

[14] = biological target: T14, ATeam3.10 R103A (Bacillus sp. PS3, UniProt A0A0M5MQR7, R103A); test: as above; assay type: binding; details: SD, n = 4; read-out: ATP Affinity Kapp
T14 construct: gene uncC; epsilon subunit flanked by mseCFP and mVenus; polyhistidine-tagged
Experimental: as §1, §4, §5

[15] = biological target: T15, ATeam3.10 R103E/R115A (Bacillus sp. PS3, UniProt A0A0M5MQR7, R103E/R115A); test: as above; assay type: binding; details: SD, n = 4; read-out: ATP Affinity Kapp
T15 construct: gene uncC; epsilon subunit flanked by mseCFP and mVenus; polyhistidine-tagged
Experimental: as §1, §4, §5

[16] = biological target: T16, ATeam3.10 R103A/R115A (Bacillus sp. PS3, UniProt A0A0M5MQR7, R103A/R115A); test: as above; assay type: binding; details: SD, n = 4; read-out: ATP Affinity Kapp
T16 construct: gene uncC; epsilon subunit flanked by mseCFP and mVenus; polyhistidine-tagged
Experimental: as §1, §4, §5

[17] = tested on: HEK293 cells; test: Live-cell imaging of metabolic inhibition (sensitized FRET emission ratio); assay type: cell-based
Experimental: Microscopy. HEK293 cells were cultured in low-glucose Dulbecco’s modified Eagle’s medium supplemented with 10% cosmic calf serum (Gibco, Thermo Fisher Scientific, Waltham, MA, USA). For imaging studies, cells were plated on 18 mm #1.5 coverslips and transfected with Effectene (Qiagen, Germantown, MD, USA) or by the calcium phosphate method. Prior to imaging, cells were equilibrated for at least 20 min at room temperature in imaging solution (15 mM HEPES, pH 7.3, 1.25 mM NaH2PO4, 130 mM NaCl, 3 mM KCl, 2 mM CaCl2, 1 mM MgCl2, 3 mM NaHCO3) supplemented with a glucose concentration dependent on the specific experiment. Live-cell microscopy was carried out at room temperature on an Olympus IX83 inverted fluorescence microscope with a 20X/0.75 NA air objective illuminated by a Lumencor SpectraX light engine and imaged with an Andor Zyla 4.2 sCMOS camera. An ECFP/EYFP/mCherry multiband beamsplitter (Chroma 69008bs) was used with bandpass excitation and emission filters for each channel: cyan 438/29 nm and 470/24 nm; yellow 510/10 nm and 540/30 nm; sensitized FRET 438/29 nm and 540/30 nm; red 575/25 nm and 631/28 nm. Andor iQ3 software was used for image acquisition, and ImageJ/FIJI was used for image analysis. […] Cell masks were created using a threshold of two times the background and applied to background-subtracted images. […]

[18] = biological target: T8, ATeam3.10 R103E/R115E; test: biochemical; set-up: gene uncC; details: n = 4
Experimental: Assays were carried out at room temperature with 0.125 µM protein in assay buffer (50 mM MOPS-KOH, pH 7.3, 50 mM KCl, 0.5 mM MgCl2, 0.05% Triton-X100). ATP stocks were neutralized to pH 7, and a total MgCl2 concentration was added to maintain 0.5 mM free Mg^2+ [21]. Samples were prepared in clear-bottom, black 96-well plates (Greiner Bio-One, Monroe, NC, USA). Sensor protein and ATP at a concentration dictated by each point on the dose–response curve were added to a single well with assay buffer and allowed to equilibrate. Samples were measured with n = 4 to 9 replicates. Steady-state fluorescence was measured on a BioTek Synergy H4 using 420/50 nm excitation and 485/20 nm or 528/20 nm emission bandpass filters (BioTek, Winooski, VT, USA). Donor fluorescence lifetimes were measured using an Edinburgh Instruments FS5+ time-resolved fluorometer with an NKT-Fianium WhiteLaseMicro supercontinuum pulsed laser (Edinburgh Instruments, Livingston, UK). Donor fluorescence lifetime distribution analysis was carried out using the MemExp software [22, 23, 24].
ADP dose responses were measured using purified protein in solution. FRET ratios were calculated as sensitized acceptor emission-to-donor emission ratios. […] ADP dose response curves for (C) single and (D) double mutants.

[19] = biological target: T9, ATeam3.10 R115A; test: Steady-state FRET ratio ADP dose response of 0.125 uM purified ATeam3.10 sensor at room temperature in 50 mM MOPS-KOH pH 7.3, 50 mM KCl, 0.5 mM MgCl2, 0.05% Triton-X100 (4 to 9 replicates).; assay type: binding; details: n = 4
Experimental: as §1
(§6) Apparent dissociation constants are summarized in (E).

[20] = biological target: T10, ATeam3.10 R115E; test: as above; assay type: binding; details: n = 4
Experimental: as §1, §6

[21] = biological target: T11, ATeam3.10 R103A/R115E; test: as above; assay type: binding; details: n = 4
Experimental: as §1, §6

[22] = biological target: T12, ATeam3.10 (WT); test: as above; assay type: binding; details: n = 4; read-out: ADP Affinity Kapp
Experimental: as §1, §6

[23] = biological target: T13, ATeam3.10 R103E; test: as above; assay type: binding; details: n = 4
Experimental: as §1, §6

[24] = biological target: T14, ATeam3.10 R103A; test: as above; assay type: binding; details: n = 4
Experimental: as §1, §6

[25] = biological target: T15, ATeam3.10 R103E/R115A; test: as above; assay type: binding; details: n = 4
Experimental: as §1, §6

[26] = biological target: T16, ATeam3.10 R103A/R115A; test: as above; assay type: binding; details: n = 4
Experimental: as §1, §6

T12 sequence (A0A0M5MQR7 1-133): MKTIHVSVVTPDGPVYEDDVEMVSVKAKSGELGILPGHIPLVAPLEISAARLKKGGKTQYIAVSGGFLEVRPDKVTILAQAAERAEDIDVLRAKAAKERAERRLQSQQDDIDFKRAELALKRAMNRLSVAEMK
T13 sequence (A0A0M5MQR7 entry or part of it R103E): as the sequence (A0A0M5MQR7 1-133) above, with R103E counted along it
T10 sequence (A0A0M5MQR7 entry or part of it R115E): as the sequence (A0A0M5MQR7 1-133) above, with R115E counted along it
T14 sequence (A0A0M5MQR7 entry or part of it R103A): as the sequence (A0A0M5MQR7 1-133) above, with R103A counted along it
T8 sequence (A0A0M5MQR7 entry or part of it R103E/R115E): as the sequence (A0A0M5MQR7 1-133) above, with R103E, R115E counted along it
T16 sequence (A0A0M5MQR7 entry or part of it R103A/R115A): as the sequence (A0A0M5MQR7 1-133) above, with R103A, R115A counted along it
T15 sequence (A0A0M5MQR7 entry or part of it R103E/R115A): as the sequence (A0A0M5MQR7 1-133) above, with R103E, R115A counted along it
T9 sequence (A0A0M5MQR7 entry or part of it R115A): as the sequence (A0A0M5MQR7 1-133) above, with R115A counted along it
T11 sequence (A0A0M5MQR7 entry or part of it R103A/R115E): as the sequence (A0A0M5MQR7 1-133) above, with R103A, R115E counted along it
T4 sequence (P37812 whole entry, stated change not applied): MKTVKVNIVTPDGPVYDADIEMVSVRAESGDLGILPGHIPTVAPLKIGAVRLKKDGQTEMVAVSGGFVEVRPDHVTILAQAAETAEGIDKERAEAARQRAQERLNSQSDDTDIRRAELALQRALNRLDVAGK
T1 sequence (P37812 whole entry, stated change not applied): as above
T7 sequence (P37812 whole entry): as the sequence (P37812 whole entry, stated change not applied) above
T6 sequence (P37812 whole entry, stated change not applied): as above

Nc1ncnc2c1ncn2[C@@H]1O[C@H](COP(=O)(O)OP(=O)(O)OP(=O)(O)O)[C@@H](O)[C@H]1O [ATP, Adenosine triphosphate]
Kd [1]: 200 µM
Kd [2]: 2200 µM
Kd [3]: 1900 µM
Kd [4]: 700 µM
Kd [5]: 1900 µM
Kd [6]: 1800 µM
Kd [7]: 1000 µM
Kd [8]: 0.8 µM
Kd [9]: 0.6 µM
Kd [10]: 0.3 µM
Kd [11]: 0.2 µM
Kd [12]: 0.8 µM
Kd [13]: 0.6 µM
Kd [14]: 0.8 µM
Kd [15]: 0.7 µM
Kd [16]: 0.2 µM

O=CC[C@@H](O)[C@H](O)[C@H](O)CO [DG, 2-deoxyglucose]
effect on cytosolic ATP ([17]; HEK293, 10 mM glucose): did not cause a drastic loss of ATP
effect on cytosolic ATP ([17]; HEK293, absence of glucose): did cause ATP depletion

Nc1ncnc2c1ncn2[C@@H]1O[C@H](COP(=O)(O)OP(=O)(O)O)[C@@H](O)[C@H]1O [ADP, Adenosine diphosphate]
Kd [18]: 51 ± 6 µM
Kd [19]: 74 ± 7 µM
Kd [20]: 29 ± 2 µM
Kd [21]: 17 ± 1 µM
Kd [22]: 130 ± 10 µM
Kd [23]: 68 ± 3 µM
Kd [24]: 82 ± 6 µM
Kd [25]: 40 ± 2 µM
Kd [26]: 32 ± 5 µM

From article PMC12527034, “R103 and R115 Affinity Mutants of ATeam ATP Biosensors” (Sensors (Basel, Switzerland), 2025)
